Laboratory results reported in patent US20220144812A1, “QUINOLINE DERIVATIVES AND THEIR USE FOR THE TREATMENT OF CANCER” (Epizyme, Inc., priority 2019, published 2022).
pIC50: −log10 of the molar value. Like-named read-outs stand apart in the source and are kept apart here.

Key:
[1] = tested on: 647V cells; assay: High throughput proliferation (HTP) assay; type: cell-based; settings: high throughput proliferation, read-out: CREBBP HTP IC50
Excerpt: The following example describes methods and materials relating to a high throughput proliferation (HTP) assay. IC50 values (micromolar) are summarized in Table 1, Table 2, and Table 3 under the column labeled: “CREBBP HTP IC50 (micromolar).”
MATERIALS: 647V cell line, Dulbecco's MEM, penicillin-streptomycin, heat inactivated fetal bovine serum, D-PBS, and CellTiter-Glo were commercially available.
647V adherent cells were maintained in complete growth medium (Dulbecco's MEM supplemented with 15% v/v heat inactivated fetal bovine serum) and cultured at 37° C. under 5% CO2.
METHOD: Measurement of the effect of compound in High Throughput Proliferation (HTP) assays was performed as follows: Exponentially growing 647V cells were plated, in triplicate, in 384-well plates at the appropriate cell density in a final volume of 50 μl. Cells were incubated in the presence of increasing concentrations of compound. Viable cell number was determined at day 7 by addition of 35 μl CellTiter-Glo to each well of the plate, incubated in the dark for 30 minutes, and read on a PerkinElmer EnVision instrument to enumerate the number of cells.

[2] = molecular target: T1, EP300 (P300(1048-1664)) (Homo sapiens, UniProt Q09472); assay: Biochemical assay for EP300, SAMDI; settings: EP300, SAMDI; read-out: EP300 Biochemistry IC50
T1 construct: P300(1048-1664)
T1 sequence (Q09472 1048-1664): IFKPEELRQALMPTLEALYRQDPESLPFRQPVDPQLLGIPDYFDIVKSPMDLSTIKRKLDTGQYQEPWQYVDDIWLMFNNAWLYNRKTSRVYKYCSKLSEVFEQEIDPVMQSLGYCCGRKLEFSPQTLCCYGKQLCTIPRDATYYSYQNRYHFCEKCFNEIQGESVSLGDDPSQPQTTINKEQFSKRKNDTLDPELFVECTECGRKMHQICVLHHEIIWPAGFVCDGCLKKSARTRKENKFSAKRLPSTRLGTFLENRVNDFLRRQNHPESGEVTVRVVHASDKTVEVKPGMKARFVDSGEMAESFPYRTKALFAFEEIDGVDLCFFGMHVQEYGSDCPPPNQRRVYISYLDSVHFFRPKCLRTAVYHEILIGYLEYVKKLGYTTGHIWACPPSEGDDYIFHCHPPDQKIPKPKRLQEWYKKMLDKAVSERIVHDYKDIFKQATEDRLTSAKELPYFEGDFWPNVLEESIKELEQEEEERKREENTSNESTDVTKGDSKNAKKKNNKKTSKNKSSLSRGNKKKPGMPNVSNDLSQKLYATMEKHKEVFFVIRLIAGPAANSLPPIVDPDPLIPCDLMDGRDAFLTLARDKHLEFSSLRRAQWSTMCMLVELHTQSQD
Excerpt: The following example describes materials and methods relating to a biochemical assay for EP300. IC50 values (micromolar (μM)) are summarized in Table 1, Table 2, and Table 3 under the column labeled: “EP300 Biochemistry IC50 (micromolar).”

[3] = tested on: H3K18Ac in HB-CLS-2 cells; assay: H3K18AC in-cell western (ICW) assay; type: cell-based; settings: H3K18Ac in-cell western; read-out: CREBBP ICW IC50
Method in brief: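 HB-CLS-2 cells seeded 16–24 hours before 2 hr compound treatment at 37° C, 5% CO2, then methanol-fixed. H3K18Ac detected with rabbit monoclonal primary (overnight, 4° C) and 800CW anti-rabbit secondary; DRAQ5 stained DNA. Plates imaged at 700 and 800 nm for integrated intensity; IC50 in μM.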

[4] = molecular target: T2, CREBBP (1084-1701) (Homo sapiens, UniProt Q92793); assay: Biochemical assay for CREBBP (1084-1701), SAMDI; settings: SAMDI, read-out: CREBBP Biochemistry IC50
T2 construct: measured in the following biochemical assay using CREBBP (1084-1701); purchased
T2 sequence (Q92793 1084-1701): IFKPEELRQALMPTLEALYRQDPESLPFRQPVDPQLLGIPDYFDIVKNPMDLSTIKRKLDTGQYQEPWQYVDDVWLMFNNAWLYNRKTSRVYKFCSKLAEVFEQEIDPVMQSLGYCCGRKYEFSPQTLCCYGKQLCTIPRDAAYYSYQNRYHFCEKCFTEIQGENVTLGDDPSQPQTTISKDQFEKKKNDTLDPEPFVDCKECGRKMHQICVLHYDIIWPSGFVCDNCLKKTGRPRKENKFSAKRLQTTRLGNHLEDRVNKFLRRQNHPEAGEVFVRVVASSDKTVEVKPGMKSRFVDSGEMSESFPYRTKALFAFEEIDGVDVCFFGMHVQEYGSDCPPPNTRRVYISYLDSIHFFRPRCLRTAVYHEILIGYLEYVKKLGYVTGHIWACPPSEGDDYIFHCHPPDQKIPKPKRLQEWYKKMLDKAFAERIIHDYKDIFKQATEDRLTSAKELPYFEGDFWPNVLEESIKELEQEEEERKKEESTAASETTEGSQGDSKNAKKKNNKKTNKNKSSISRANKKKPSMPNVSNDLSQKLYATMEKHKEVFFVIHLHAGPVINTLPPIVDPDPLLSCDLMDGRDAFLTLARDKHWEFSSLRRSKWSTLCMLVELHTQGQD
Method in brief: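 CREBBP (1084-1701) preincubated with compound 30 min at RT, then substrate mix (biotin-H3 11-25 K14R/K23R peptide, acetyl-CoA) added for 30 min at RT. Reaction stopped with formic acid, neutralised with sodium bicarbonate. Peptide acetylation read by SAMDI mass spectrometry to derive IC50.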

For CCn1ncc(CN(C)C(=O)c2nc(-c3ccc(OCCCNC(C)C)c(C)c3)nc3ccc(Cl)cc23)c1C [Compound 31], the pIC50 ([1]; Homo sapiens, 647-V) was 6.89, the pIC50 [2] was 6.85 and the pIC50 [3] was 6.59. It also gave a pIC50 [4] of 7.55.
CCn1ncc(CN(C)C(=O)c2nc(-c3ccc(OCCO)cc3Cl)nc3ccc(Cl)cc23)c1C [Compound 32] gave a pIC50 ([1]; Homo sapiens, 647-V) of 6.82, a pIC50 [2] of 6.48 and a pIC50 [3] of 6.57. It also gave a pIC50 [4] of 6.82.
CCn1ncc(CN(C)C(=O)c2nc(-c3ccc(OCCCNC)cc3C)nc3ccc(Cl)cc23)c1C [Compound 33] gave a pIC50 ([1]; Homo sapiens, 647-V) of 6.74, a pIC50 [2] of 7.28 and a pIC50 [3] of 6.57. The pIC50 [4] was 7.17.
CCn1ncc(CN(C)C(=O)c2nc(-c3cc(Cl)cc(NC(=O)NC)c3)nc3ccc(Cl)cc23)c1C [Compound 34] gave a pIC50 ([1]; Homo sapiens, 647-V) of 6.70, a pIC50 [2] of 8.49 and a pIC50 [3] of 6.57. It also gave a pIC50 [4] of 8.49.
Molecule CCn1ncc(CN(C)C(=O)c2nc(-c3ccc(OCCNC(C)=O)c(Cl)c3)nc3ccc(Cl)cc23)c1C [Compound 35] has a pIC50 ([1]; Homo sapiens, 647-V) of 6.66, a pIC50 [2] of 6.74 and a pIC50 [3] of 6.54. It also gave a pIC50 [4] of 7.36.
Molecule CCc1ncc(CN(C)C(=O)c2nc(-c3cccc(Cl)c3)nc3ccc(Cl)cc23)n1C [Compound 37] has a pIC50 ([1]; Homo sapiens, 647-V) of 6.54, a pIC50 [2] of 8.21 and a pIC50 [3] of 6.52. The pIC50 [4] was 8.47.
Molecule CCn1ncc(CN(C)C(=O)c2nc(-c3ccc(O[C@@H]4CNC[C@H]4O)cc3Cl)nc3ccc(Cl)cc23)c1C [Compound 38] has a pIC50 ([1]; Homo sapiens, 647-V) of 6.64, a pIC50 [2] of 7.92 and a pIC50 [3] of 6.48. The pIC50 [4] was 7.47.
Work on CCn1ncc(CN(C)C(=O)c2nc(-c3ccc4[nH]c(C)nc4c3)nc3ccc(Cl)cc23)c1C [Compound 39] yielded a pIC50 ([1]; Homo sapiens, 647-V) of 6.60, a pIC50 [2] of 6.17 and a pIC50 [3] of 6.47. For the same molecule, the pIC50 [4] was 6.19.
In the case of CCn1ncc(CN(C)C(=O)c2nc(-c3ccc(OCCN4CCCC4)cc3Cl)nc3ccc(Cl)cc23)c1C [Compound 40], the pIC50 ([1]; Homo sapiens, 647-V) was 6.66, the pIC50 [2] was 6.89 and the pIC50 [3] was 6.46. For the same molecule, the pIC50 [4] was 6.96.
In the case of CCn1ncc(CN(C)C(=O)c2nc(-c3ccc(OCCO)c(Cl)c3)nc3ccc(Cl)cc23)c1C [Compound 41], the pIC50 ([1]; Homo sapiens, 647-V) was 6.80, the pIC50 [2] was 6.60 and the pIC50 [3] was 6.43. The pIC50 [4] was 7.21.
Molecule CCn1ncc(CN(C)C(=O)c2nc(-c3ccc(OCCCN4CCCCC4)c(C)c3)nc3ccc(Cl)cc23)c1C [Compound 42] has a pIC50 ([1]; Homo sapiens, 647-V) of 6.74, a pIC50 [2] of 7.06 and a pIC50 [3] of 6.42. The pIC50 [4] was 7.16.
With CCn1ncc(CN(C)C(=O)c2nc(-c3ccc(OCCNC(C)=O)c(C)c3)nc3ccc(Cl)cc23)c1C [Compound 43] the pIC50 ([1]; Homo sapiens, 647-V) was 6.34, the pIC50 [2] was 6.47 and the pIC50 [3] was 6.42. The pIC50 [4] was 7.16.
For CCn1ncc(CN(C)C(=O)c2nc(-c3cc(C)c4n[nH]cc4c3)nc3ccc(Cl)cc23)c1C [Compound 44], the pIC50 ([1]; Homo sapiens, 647-V) was 6.57, the pIC50 [2] was 7.08 and the pIC50 [3] was 6.42. For the same molecule, the pIC50 [4] was 7.57.
Molecule CCn1ncc(CN(C)C(=O)c2cc(-c3ccc(OCCO)c(C)n3)nc3ccc(Cl)cc23)c1C [Compound 45] has a pIC50 ([1]; Homo sapiens, 647-V) of 6.42, a pIC50 [2] of 7.12 and a pIC50 [3] of 6.41. The pIC50 [4] was 7.13.
CCn1ncc(CN(C)C(=O)c2nc(-c3ccc(OCCCNC)c(C4CC4)c3)nc3ccc(Cl)cc23)c1C [Compound 46] was tested, and the pIC50 ([1]; Homo sapiens, 647-V) was 6.70, the pIC50 [2] was 6.49 and the pIC50 [3] was 6.39. The pIC50 [4] was 7.39.
Molecule CCn1ncc(CN(C)C(=O)c2cc(-c3cnc[nH]3)nc3ccc(Cl)cc23)c1C [Compound 48] has a pIC50 ([1]; Homo sapiens, 647-V) of 6.11, a pIC50 [2] of 6.96 and a pIC50 [3] of 6.35. The pIC50 [4] was 6.42.
CCn1ncc(CN(C)C(=O)c2nc(-c3cc(Cl)cc(NCCCNC)c3)nc3ccc(Cl)cc23)c1C [Compound 50] gave a pIC50 [1] of 6.82, a pIC50 [2] of 8.30 and a pIC50 [3] of 6.32. For the same molecule, the pIC50 [4] was 7.80.
